Experimental data as given in US8466155B2, “Pyrimidines” (Boehringer Ingelheim International GmbH, priority 2009, dated 2013).
pIC50: −log10 of the molar value.

Biological target: T1, PTK2 (Homo sapiens, UniProt Q05397)
T1 construct: purchased Invitrogen PV3832
Experiment: PTK2 enzyme test, Assay 1 (DELFIA, PT60 antibody)
Format: biochemical
Details: 1 h pre-incubation, 1 h kinase reaction, values without *
Protocol: This test uses active PTK2 enzyme (Invitrogen Code PV3832) and poly-Glu-Tyr (4:1, Sigma P-0275) as the kinase substrate. The kinase activity is detected through the phosphorylation of the substrate in a DELFIA™ assay. The phosphorylated substrate is detected with the europium-labelled phosphotyrosine antibody PT60 (Perkin Elmer, No.: AD00400).
In order to determine concentration-activity curves with PTK2-inhibitors the compounds are serially diluted in 10% DMSO/H20 and 10 μL of each dilution are placed in each well of a 96-well microtitre plate (clear plate with a U-shaped base, Greiner No. 650101) (the inhibitors are tested in duplicates) and mixed with 10 μL/well of PTK2 kinase (0.01 μg/well). PTK2 kinase has been correspondingly diluted beforehand with kinase dilution buffer (20 mM TRIS/HCl pH 7.5, 0.1 mM EDTA, 0.1 mM EGTA, 0.286 mM sodium orthovanadate, 10% glycerol with the addition of freshly prepared BSA (fraction V, 1 mg/mL) and DTT (1 mM)). The test compound and the PTK2 kinase are pre-incubated for 1 h at RT and shaken at 500 revolutions per min. The reaction is started by the addition of 10 μL/well poly (Glu,Tyr) substrate (25 μg/well poly (Glu, Tyr), 0.05 μg/well biotinylated poly (Glu,Tyr) dissolved in 250 mM TRIS/HCl pH 7.5, 9 mM DTT)—the final concentration of DMSO is 2%. Then 20 μL of ATP Mix (30 mM TRIS/HCl pH 7.5, 0.02% Brij, 0.2 mM sodium orthovanadate, 10 mM magnesium acetate, 0.1 mM EGTA, 1× phosphatase inhibitor cocktail 1 (Sigma, No.: P2850), 50 μM ATP (Sigma, No.: A3377; 15 mM stock solution)) are added. After 1 h of kinase reaction (the plates are shaken at 500 rpm), the reaction is stopped by the addition of 12 μL/well 100 mM EDTA, pH 8.0 and shaken for a further 5 min at RT (500 rpm). 55 μL of the reaction mixture are transferred into a streptavidin plate (Strepta Well High Bind (transparent, 96-well) made by Roche, No.: 11989685001) and incubated for 1 h at RT (shaking at 500 rpm). Then the microtitre plate is washed three times with 200 μL/well D-PBS (Invitrogen, No. 14190). 100 μL of a solution containing DELFIA Eu-N1 Anti-Phosphotyrosine PT60 antibody (Perkin Elmer, No.: AD0040, diluted 1:2000 in DELFIA test buffer (Perkin Elmer, No.: 1244-111)) is then added and the mixture is incubated for 1 h at RT (shaking at 500 rpm). Then the plate is washed three times with 200 μL/well DELFIA washing buffer (Perkin Elmer, No.: 1244-114), 200 μL/well strengthening solution (Perkin Elmer, No.: 1244-105) are added and the mixture is incubated for 10 min at RT (shaking at 300 rpm).
The time-delayed europium fluorescence is then measured in a microtitre plate reader (VICTOR^3, Perkin Elmer). […] Wells that contain test buffer instead of enzyme are used as a control of the background kinase activity.
The IC50 values are determined from analyses of the concentration activity by iterative calculation with the aid of a sigmoid curve analysis algorithm (FIFTY, based on GraphPAD Prism Version 3.03) with a variable Hill coefficient.

T1 sequence (Q05397 whole entry): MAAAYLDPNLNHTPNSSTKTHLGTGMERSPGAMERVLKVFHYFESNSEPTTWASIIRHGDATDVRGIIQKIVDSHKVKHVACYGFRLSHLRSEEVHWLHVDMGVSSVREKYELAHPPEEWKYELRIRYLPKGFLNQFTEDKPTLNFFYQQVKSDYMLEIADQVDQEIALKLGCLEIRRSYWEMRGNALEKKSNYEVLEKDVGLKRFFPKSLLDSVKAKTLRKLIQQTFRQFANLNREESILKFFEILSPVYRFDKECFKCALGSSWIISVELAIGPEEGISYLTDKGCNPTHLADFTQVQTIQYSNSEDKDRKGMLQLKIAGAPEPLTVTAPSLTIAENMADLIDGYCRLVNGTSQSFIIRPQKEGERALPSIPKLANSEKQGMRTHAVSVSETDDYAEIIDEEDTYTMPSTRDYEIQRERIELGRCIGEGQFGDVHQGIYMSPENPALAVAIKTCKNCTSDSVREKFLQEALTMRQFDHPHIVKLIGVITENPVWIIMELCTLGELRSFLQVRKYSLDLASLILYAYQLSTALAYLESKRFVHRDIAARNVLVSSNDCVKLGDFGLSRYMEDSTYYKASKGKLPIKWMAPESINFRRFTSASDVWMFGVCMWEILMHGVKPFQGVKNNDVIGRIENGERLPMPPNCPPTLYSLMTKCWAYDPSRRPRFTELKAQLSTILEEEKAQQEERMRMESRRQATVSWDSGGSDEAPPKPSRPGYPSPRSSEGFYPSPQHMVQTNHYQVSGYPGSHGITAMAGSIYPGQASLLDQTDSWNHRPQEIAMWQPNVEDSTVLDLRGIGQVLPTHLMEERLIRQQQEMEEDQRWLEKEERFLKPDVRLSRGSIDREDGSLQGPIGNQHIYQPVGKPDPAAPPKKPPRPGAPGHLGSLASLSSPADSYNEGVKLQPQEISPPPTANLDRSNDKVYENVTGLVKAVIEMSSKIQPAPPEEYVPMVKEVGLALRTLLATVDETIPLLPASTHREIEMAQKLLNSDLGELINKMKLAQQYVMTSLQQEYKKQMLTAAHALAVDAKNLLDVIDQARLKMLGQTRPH

| Structure (SMILES) | pIC50 |
| --- | --- |
| CNC(=O)c1cc(OC)c(Nc2ncc(C(F)(F)F)c(O[C@@H]3Cc4ccccc4[C@H]3N(C)S(C)(=O)=O)n2)cc1F [Example 6] | 7.77 |
| CNC(=O)c1ccc(Nc2ncc(C(F)(F)F)c(O[C@@H]3Cc4ccccc4[C@H]3N(C)S(C)(=O)=O)n2)c(OC)c1 [Example 17] | 7.89 |
| COc1cc(C(=O)NCCN(C)C)c(F)cc1Nc1ncc(C(F)(F)F)c(O[C@@H]2Cc3ccccc3[C@H]2N(C)S(C)(=O)=O)n1 [Example 2] | 8.30 |
| COc1cc(C(=O)NN2CCN(C)CC2)c(Cl)cc1Nc1ncc(Cl)c(O[C@@H]2Cc3ccccc3[C@H]2N(C)S(C)(=O)=O)n1 [Example 63] | 8.52 |
| COc1cc(C(=O)N(C)C)c(F)cc1Nc1ncc(Cl)c(O[C@@H]2Cc3ccccc3[C@H]2N(C)S(C)(=O)=O)n1 [Example 54] | 7.04 |
| COc1cc(C(=O)NC2CCN(C)CC2)ccc1Nc1ncc(C(F)(F)F)c(O[C@@H]2Cc3ccccc3[C@@H]2N(C)S(C)(=O)=O)n1 [Example 69] | 7.38 |
| COc1cc(C(=O)NCC2CC2)c(F)cc1Nc1ncc(Cl)c(O[C@@H]2Cc3ccccc3[C@H]2N(C)S(C)(=O)=O)n1 [Example 66] | 7.80 |
| COc1cc(C(=O)NC[C@H](O)CO)c(Cl)cc1Nc1ncc(Cl)c(O[C@@H]2Cc3ccccc3[C@H]2N(C)S(C)(=O)=O)n1 [Example 36] | 8.52 |
| COc1cc(C(=O)NCCn2ccnc2C)c(Cl)cc1Nc1ncc(Cl)c(O[C@@H]2Cc3ccccc3[C@H]2N(C)S(C)(=O)=O)n1 [Example 35] | 8.70 |
| COc1cc(C(=O)NCCN2CCN(C)CC2)c(F)cc1Nc1ncc(C(F)(F)F)c(O[C@@H]2Cc3ccccc3[C@H]2N(C)S(C)(=O)=O)n1 [Example 5] | 8.40 |
| COc1cc(C(=O)N[C@H]2CCN(C)C[C@@H]2OC)ccc1Nc1ncc(C(F)(F)F)c(O[C@@H]2Cc3ccccc3[C@H]2N(C)S(C)(=O)=O)n1 [Example 29, 4-{4-[(1R,2R)-1-(methanesulphonyl-methyl-amino)-indan-2-yloxy]-5-trifluoromethyl-pyrimidin-2-ylamino}-3-methoxy-N-((3S,4S)-3-methoxy-1-methyl-piperidin-4-yl)-benzamide] | 8.52 |
| COc1cc(C(=O)NC2CCN(C)CC2)ccc1Nc1ncc(C(F)(F)F)c(O[C@@H]2Cc3ccccc3[C@H]2N(C)S(C)(=O)=O)n1 [Example 27, 4-{4-[(1R,2R)-1-(methanesulphonyl-methyl-amino)-indan-2-yloxy]-5-trifluoromethyl-pyrimidin-2-ylamino}-3-methoxy-N-(1-methyl-piperidin-4-yl)-benzamide] | 9.00 |
| COc1cc(C(=O)NN2CCN(C)CC2)c(F)cc1Nc1ncc(Cl)c(O[C@@H]2Cc3ccccc3[C@H]2N(C)S(C)(=O)=O)n1 [Example 59] | 8.22 |
| COc1cc(C(=O)N[C@H]2CCN(C)C[C@@H]2OC)c(F)cc1Nc1ncc(C(F)(F)F)c(O[C@@H]2Cc3ccccc3[C@H]2N(C)S(C)(=O)=O)n1 [Example 31, 2-fluoro-4-{4-[(1R,2R)-1-(methanesulphonyl-methyl-amino)-indan-2-yloxy]-5-trifluoromethyl-pyrimidin-2-ylamino}-5-methoxy-N-((3S,4S)-3-methoxy-1-methyl-piperidin-4-yl)-benzamide] | 8.52 |
| COc1cc(C(=O)NCCCN(C)C)ccc1Nc1ncc(C(F)(F)F)c(O[C@@H]2Cc3ccccc3[C@H]2N(C)S(C)(=O)=O)n1 [Example 20] | 8.52 |
| COc1cc(C(=O)NCCCN(C)C)c(Cl)cc1Nc1ncc(Cl)c(O[C@@H]2Cc3ccccc3[C@H]2N(C)S(C)(=O)=O)n1 [Example 41] | 8.70 |
| COc1cc(C(=O)NC2CCN(C)CC2)c(F)cc1Nc1ncc(C(F)(F)F)c(O[C@@H]2CCC[C@H]2NS(=O)(=O)C2CC2)n1 [Example 46] | 7.47 |

Next, values leading:

| pIC50 | Structure (SMILES) |
| --- | --- |
| 9.36 | COc1cc(C(=O)NCCN(C)C)c(Cl)cc1Nc1ncc(C(F)(F)F)c(O[C@@H]2CCCC[C@H]2NS(C)(=O)=O)n1 [Example 108] |
| 9.46 | COc1cc(C(=O)NCCN(C)C)c(F)cc1Nc1ncc(C(F)(F)F)c(O[C@@H]2CCCC[C@H]2N(C)S(C)(=O)=O)n1 [Example 110] |
| 9.48 | COc1cc(C(=O)NN2CCN(C)CC2)ccc1Nc1ncc(C(F)(F)F)c(O[C@@H]2CCC[C@H]2N(C)S(C)(=O)=O)n1 [Example 89] |
| 9.46 | COc1cc(C(=O)NCCN(C)C)c(Cl)cc1Nc1ncc(C(F)(F)F)c(O[C@@H]2CCCC[C@H]2N(C)S(C)(=O)=O)n1 [Example 109] |
| 6.99 | COc1cc(C(=O)NC2CCN(C)CC2)c(F)cc1Nc1ncc(C(F)(F)F)c(O[C@@H]2CCC[C@H]2NS(=O)(=O)C(F)(F)F)n1 [Example 107] |
| 9.55 | COc1cc(C(=O)NC2CCN(C)CC2)c(Cl)cc1Nc1ncc(C(F)(F)F)c(O[C@@H]2Cc3ccccc3[C@H]2NS(C)(=O)=O)n1 [Example 87] |
| 9.49 | COc1cc(C(=O)NC2CCN(C)CC2)c(Cl)cc1Nc1ncc(Cl)c(O[C@@H]2CCC[C@H]2N(C)S(C)(=O)=O)n1 [Example 84, 2-chloro-4-{5-chloro-4-[(1R,2R)-2-(methanesulphonyl-methyl-amino)-cyclopentyloxy]-pyrimidin-2-ylamino}-5-methoxy-N-(1-methyl-piperidin-4-yl)-benzamide] |
| 9.43 | COc1cc(C(=O)NCCN(C)C)c(Cl)cc1Nc1ncc(C(F)(F)F)c(O[C@@H]2CCC[C@H]2NS(C)(=O)=O)n1 [Example 78] |
| 9.42 | COc1ccc(C(=O)NCCCN(C)C)cc1Nc1ncc(C(F)(F)F)c(O[C@@H]2Cc3ccccc3[C@H]2N(C)S(C)(=O)=O)n1 [Example 82] |
